Test results from patent US7183061B2, “Method of expressing Heliothis ecdysone receptor fusion protein” (Syngenta Limited, priority 1996, dated 2007).

Assays:
[1] = molecular target: T1, glucocorticoid/Heliothis ecdysone chimeric receptor (UniProt O18473+P04150); experiment: CHO cells transfected with pcDNA3GRHEcR and pSWGRE4 (β-galactosidase reporter); format: cell-based, Heliothis virescens; design: expressed in transfected cells; host or cells: CHO-K1 (A7); details: co-transformed CHO cells (FIG. 27)
T1 sequence (P04150+O18473 with tags, fused parts or gaps): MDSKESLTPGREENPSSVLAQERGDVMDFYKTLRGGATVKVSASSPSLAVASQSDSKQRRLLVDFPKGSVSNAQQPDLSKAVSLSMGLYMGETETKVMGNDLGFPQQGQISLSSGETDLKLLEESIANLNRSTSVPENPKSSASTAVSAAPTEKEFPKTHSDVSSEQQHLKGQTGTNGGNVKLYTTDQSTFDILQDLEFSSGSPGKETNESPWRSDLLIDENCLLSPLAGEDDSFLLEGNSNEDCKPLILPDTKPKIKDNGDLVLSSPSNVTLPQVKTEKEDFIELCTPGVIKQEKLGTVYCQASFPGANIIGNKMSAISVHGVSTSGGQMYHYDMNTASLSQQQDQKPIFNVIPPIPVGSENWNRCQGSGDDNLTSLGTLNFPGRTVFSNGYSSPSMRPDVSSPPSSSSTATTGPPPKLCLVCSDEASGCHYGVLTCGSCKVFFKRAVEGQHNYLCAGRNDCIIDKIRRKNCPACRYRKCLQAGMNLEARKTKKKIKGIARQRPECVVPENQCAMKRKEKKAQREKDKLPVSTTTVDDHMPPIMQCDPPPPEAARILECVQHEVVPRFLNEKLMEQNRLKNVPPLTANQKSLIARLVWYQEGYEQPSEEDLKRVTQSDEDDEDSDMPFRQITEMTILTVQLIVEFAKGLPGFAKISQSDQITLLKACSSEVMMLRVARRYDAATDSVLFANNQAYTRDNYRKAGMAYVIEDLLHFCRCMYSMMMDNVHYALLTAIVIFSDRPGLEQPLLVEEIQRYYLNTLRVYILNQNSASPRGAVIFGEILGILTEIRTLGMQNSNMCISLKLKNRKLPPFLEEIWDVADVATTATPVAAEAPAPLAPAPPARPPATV
Description: Transfections of mammalian cell lines (CHO-K1 Chinese hamster ovary) ATCC number CCL61 or cos-1 (Monkey cell line) were performed using either calcium phosphate precipitation (Gorman, Chapter 6 of “DNA cloning: a practical approach. Vol 2 D. M. Glover ed/.(1985) IRL Press, Oxford) or using LipofectAMINE (Gibco BRL Cat. No. 18324–012, following manufacturer's instructions). […] 293 cells were transfected using analogous methods.
The mammalian expression vector used in this experiment was pcDNA3 (Invitrogen). The GRHEcR 2.7 kb BamHI DNA fragment (isolated from pMF6GRHEcR) was introduced into the pcDNA3 BamHI vector. The recombinants were oriented by restriction enzyme mapping. The DNA sequence of the junctions was determined to ensure correct orientation and insertion (pcDNA3GRHEcR, FIG. 25).
The reporter plasmid for mammalian cell system was produced by taking pSWBGAL plasmid and replacing the CRESW SpeI/ClaI fragment for a synthetic 105 bp DNA fragment containing 4 copies of the glucocorticoid response element (GRE) and flanked by SpeI at the 5′ end and AflII at the 3′ end.
The two oligonucleotides were purified annealed and ligated to pSWBGAL SpeI/AflII to produce pSWGRE4 (FIG. 26).
A screen was carried out using CHO cells transiently transfected with both pSWGRE4 (reporter) and pcDNA3GRHEcR (effector) constructs. […]

[2] = molecular target: T1, glucocorticoid/Heliothis ecdysone chimeric receptor; experiment: Tobacco mesophyll protoplast GUS reporter assay with chimeric effector and p221.9GRE6; format: cell-based, Heliothis virescens; design: expressed in transfected cells; host or cells: maize protoplasts (A5); tobacco mesophyll protoplasts (A6); CHO-K1 (A7); HEK293 (A8); stably transformed tobacco plants (A9); details: tobacco protoplasts, 10 μM
Description: It is the aim in this example to show the generic application to plants of the glucocorticoid/Heliothis ecdysone chimeric receptor switch system. Tobacco shoot cultures cv. Samsun, were maintained on solidified MS medium +3% sucrose in a controlled environment room (16 hour day/8 hour night at 25° C., 55% R.H), were used as the source material for protoplasts. Leaves were sliced parallel to the mid-rib, discarding any large veins and the slices were placed in CPW13M 13% Mannitol, pH 5.6, ˜860 mmol/kg) for ˜1 hour to pre-plasmolyse the cells. This solution was replaced with enzyme mixture (0.2% Cellulase R10, 0.05% Macerozyme R10 in CPW9M (CPW13M but 9% Mannitol), pH 5.6, ˜600 mmol/kg) and incubated in the dark at 25° C. overnight (˜16 hours). Following digestion, the tissue was teased apart with forceps and any large undigested pieces were discarded. The enzyme mixture was passed through a 75 μm sieve and the filtrate was centrifuged at 600 rpm for 3.5 minutes, discarding the supernatant. The pellet was resuspended in 0.6 M sucrose solution and centrifuged at 600 rpm for 10 minutes. The floating layer of protoplasts was removed using a Pasteur pipette and diluted with CPW9M (pH 5.6, ˜560 mmol/kg). The protoplasts were again pelleted by centrifuging at 600 rpm for 3.5 minutes, resuspended in CPW9M and counted. A modified version of the PEG-mediated transformation above was carried out. […]

How did the “chemical induced reporter gene activity” value [1] turn out when `CCc1ccc(C(=O)NN(C(=O)c2cc(C)cc(C)c2)C(C)(C)C)cc1` [RH5992, 3,5-dimethylbenzoic acid 1-1(1,1-dimethylethyl)-2(4-ethylbenzoyl)hydrazide] was run?
The value was “significant chemical induced reporter gene activity”.

And the marker gene activity [2]?
The marker gene activity was “significant elevation of marker gene activity”.
